Data published in patent US8399503B2, “Spirocyclic azaindole derivatives” (Gruenenthal GmbH, priority 2006, dated 2013).
Where a name gives a salt, the structure may show the parent alone.

Columns and labels:
human μ-opiate receptor = human μ-opiate receptor (Homo sapiens, UniProt P35372); test: μ binding: [3H]-naloxone displacement, membrane preparation of CHO-K1 cells expressing the human μ-opiate receptor; settings: [3H]-naloxone 1 nmole/l; Cheng-Prusoff conversion; read-out: μ-Opioid receptor, Ki value
Sequence of human μ-opiate receptor (P35372 whole entry): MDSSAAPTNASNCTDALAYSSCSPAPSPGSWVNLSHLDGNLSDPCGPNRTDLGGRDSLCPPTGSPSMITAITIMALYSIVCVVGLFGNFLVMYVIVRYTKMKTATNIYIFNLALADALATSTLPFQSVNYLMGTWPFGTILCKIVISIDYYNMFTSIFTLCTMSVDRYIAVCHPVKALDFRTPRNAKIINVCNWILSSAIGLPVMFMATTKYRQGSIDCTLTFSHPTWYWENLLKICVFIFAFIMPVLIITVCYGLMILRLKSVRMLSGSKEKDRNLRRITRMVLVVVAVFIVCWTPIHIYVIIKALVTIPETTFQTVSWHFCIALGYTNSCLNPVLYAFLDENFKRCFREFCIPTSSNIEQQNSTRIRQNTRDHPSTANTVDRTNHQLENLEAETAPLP

Compound	melting point [°C]	Ki (human μ-opiate receptor) [nM]
CN(C)C1(c2ccccc2)CCC2(CC1)SCCc1c2[nH]c2ncccc12 (stereo not drawn) (as salt: citrate)	246 to 253	
CN(C)C1(c2ccccc2)CCC2(CC1)SCCc1c2[nH]c2ccncc12 (stereo not drawn) (as salt: citrate)	163 to 168	
c1ccc(CC2(N3CCOCC3)CCC3(CC2)OCCc2c3[nH]c3ncccc23)cc1 (stereo not drawn) [Example 19, 4-benzyl-4-morpholino-spiro[cyclohexane-1,8′-(5,6,8,9-tetrahydropyrano[3,4-b]-7-azaindole)]]		2910
